Results reported in ChEMBL document CHEMBL3880402, “Inhibitors of E1 activating enzymes” (2006).

Target: T1, NEDD8-activating enzyme E1 catalytic subunit (Homo sapiens, UniProt Q8TBC4)
T1 sequence (Q8TBC4 whole entry): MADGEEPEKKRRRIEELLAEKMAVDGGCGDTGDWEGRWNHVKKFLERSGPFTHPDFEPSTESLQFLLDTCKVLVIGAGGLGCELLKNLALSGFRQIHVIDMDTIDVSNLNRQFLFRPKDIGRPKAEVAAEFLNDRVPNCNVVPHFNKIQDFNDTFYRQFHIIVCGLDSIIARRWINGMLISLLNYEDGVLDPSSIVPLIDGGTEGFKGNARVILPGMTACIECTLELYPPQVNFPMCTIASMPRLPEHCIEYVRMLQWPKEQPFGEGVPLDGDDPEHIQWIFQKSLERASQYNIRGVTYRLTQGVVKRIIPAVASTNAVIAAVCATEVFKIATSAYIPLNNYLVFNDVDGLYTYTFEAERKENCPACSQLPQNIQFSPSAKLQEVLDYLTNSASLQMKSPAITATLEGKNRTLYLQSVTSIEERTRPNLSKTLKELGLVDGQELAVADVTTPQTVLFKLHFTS
Test: Inhibition of recombinant human untagged NAEalpha/N-terminal His-tagged NAEbeta expressed in Bac-to-Bac expression system using FLAG-tagged NEDD8 as substrate after 90 mins in presence of GST-tagged Ubc12 by HTRF assay

IC50 [nM] | SMILES
100 to 1000 | NS(=O)(=O)OC[C@H]1C[C@@H](n2cnc3c(N[C@H]4CCc5ccccc54)ncnc32)C[C@@H]1O
100 to 1000 | NS(=O)(=O)OC[C@H]1O[C@@H](n2cnc3c(NCC4CCNCC4)ncnc32)[C@H](O)[C@@H]1O
100 to 1000 | NS(=O)(=O)OC[C@H]1O[C@@H](n2cnc3c(NCc4ccc(F)cc4)ncnc32)[C@H](O)[C@@H]1O
100 to 1000 | NS(=O)(=O)OC[C@H]1O[C@@H](n2cnc3c(N[C@H]4CCc5ccccc54)ncnc32)[C@@H](F)[C@@H]1O
≤ 1000 | NS(=O)(=O)OC[C@H]1O[C@@H](n2ccc3c(NCc4ccccc4)nccc32)C[C@@H]1O
100 to 1000 | NS(=O)(=O)OC[C@H]1O[C@@H](n2cnc3c(-c4ccco4)ncnc32)[C@H](O)[C@@H]1O
100 to 1000 | NS(=O)(=O)CC[C@H]1O[C@@H](n2cnc3c(N[C@H]4CCc5ccccc54)ncnc32)[C@H](O)[C@@H]1O
100 to 1000 | NS(=O)(=O)OC[C@H]1O[C@@H](n2cnc3c(N[C@@H](CO)c4ccccc4)ncnc32)[C@H](O)[C@@H]1O
100 to 1000 | NS(=O)(=O)OC[C@H]1O[C@@H](n2cnc3c(NCc4ccc(Cl)cc4)ncnc32)[C@H](O)[C@@H]1O
≤ 1000 | COCCNc1ncnc2c1ncn2[C@@H]1O[C@H](CNS(N)(=O)=O)[C@@H](O)[C@H]1O
100 to 1000 | NS(=O)(=O)OC[C@H]1C[C@@H](n2cnc3c(CCc4ccccc4)ncnc32)[C@H](O)[C@@H]1O
100 to 1000 | NS(=O)(=O)OC[C@H]1O[C@@H](n2cnc3c(C#Cc4ccc(Cl)cc4)ncnc32)[C@H](O)[C@@H]1O
100 to 1000 | NS(=O)(=O)OC[C@H]1O[C@@H](n2cnc3c(CCc4ccccc4)ncnc32)[C@@H](F)[C@@H]1O (relative stereo)
100 to 1000 | NS(=O)(=O)OC[C@H]1O[C@@H](n2cnc3c(C#Cc4ccccc4Cl)ncnc32)[C@H](O)[C@@H]1O
100 to 1000 | NS(=O)(=O)NC[C@H]1O[C@@H](n2cnc3c(NCc4ccc5c(c4)OCO5)ncnc32)[C@H](O)[C@@H]1O
100 to 1000 | NS(=O)(=O)OC[C@H]1O[C@@H](n2cnc3c(NCCc4ccccc4)ncnc32)[C@H](O)[C@@H]1O

IC50 [nM] | SMILES
100 to 1000 | NS(=O)(=O)OC[C@H]1O[C@@H](n2cnc3c(C#CC4CC4)ncnc32)[C@H](O)[C@@H]1O
100 to 1000 | COCCNc1ncnc2c1ncn2[C@@H]1O[C@H](COS(N)(=O)=O)[C@@H](O)[C@H]1O
100 to 1000 | NS(=O)(=O)NC[C@H]1O[C@@H](n2cnc3c(C#Cc4ccccc4)ncnc32)[C@H](O)[C@@H]1O
100 to 1000 | NS(=O)(=O)OC[C@H]1O[C@@H](n2cnc3c(NC(=O)c4ccc(Cl)cc4)ncnc32)[C@H](O)[C@@H]1O
100 to 1000 | NS(=O)(=O)OC[C@H]1O[C@@H](n2cnc3c(-c4cccc(C(F)(F)F)c4)ncnc32)[C@H](O)[C@@H]1O
100 to 1000 | NS(=O)(=O)OC[C@H]1O[C@@H](n2cnc3c(C#Cc4ccccc4F)ncnc32)[C@H](O)[C@@H]1O
100 to 1000 | NS(=O)(=O)OC[C@H]1O[C@@H](n2cnc3c(N[C@H](CO)c4ccccc4)ncnc32)[C@H](O)[C@@H]1O
100 to 1000 | NS(=O)(=O)OC[C@H]1O[C@@H](n2ccc3c(N[C@H]4CCc5ccccc54)ncnc32)[C@H](O)[C@@H]1O
100 to 1000 | NS(=O)(=O)OC[C@H]1O[C@@H](n2cnc3c(C#Cc4ccc(F)cc4)ncnc32)[C@H](O)[C@@H]1O
100 to 1000 | NS(=O)(=O)OC[C@H]1O[C@@H](n2cnc3c(-c4cccc(-n5cccn5)c4)ncnc32)[C@H](O)[C@@H]1O
100 to 1000 | NS(=O)(=O)OC[C@H]1O[C@@H](n2cnc3c(NCc4cccs4)ncnc32)[C@H](O)[C@@H]1O
≤ 1000 | CCc1cn([C@H]2C[C@H](O)[C@@H](COS(N)(=O)=O)O2)c2ncnc(CCc3ccccc3)c12
≤ 1000 | COc1ncnc2c1ccn2[C@H]1C[C@H](O)[C@@H](COS(N)(=O)=O)O1
100 to 1000 | NS(=O)(=O)CC[C@H]1O[C@@H](n2cnc3c(N[C@@H]4c5ccccc5C[C@@H]4O)ncnc32)[C@H](O)[C@@H]1O
100 to 1000 | COc1ccccc1C(=O)NCc1ncnc2c1ncn2[C@@H]1O[C@H](COS(N)(=O)=O)[C@@H](O)[C@H]1O
